Structures can show the parent of a compound that is named as a salt.
Legend:
PLC/PRF/5 cells = assay: Cell viability assay (Cell Titer-Glo); format: cell-based; conditions: for IC50 lower than that of MK-4: 96 h of treatment; for IC50: Homo sapiens, 95% confidence interval in square brackets
Method: (§1) To assess the effects of MKH-ester prodrugs on HCC cell proliferation, DCP-positive (PLC/PRF/5) and DCP-negative (SK-Hep-1) HCC cell lines were treated with various concentrations of MKH-ACT, MKH-DMG, MKH-SUC or MK-4 up to 96 h, and cell viability was determined.
(§2) Cell viability was determined using a previously reported method. Briefly, PLC/PRF/5 and SK-Hep-1 cells were plated at 5.0 × 10^3 cells/well in 96-well plates and allowed to attach for 48 h. MK-4 and MKH-ACT were dissolved in 99.5% ethanol. MKH-SUC was dissolved in DMSO. MKH-DMG was dissolved in sterilized water. Stock solutions of each drug (50 mM) were diluted to the intended final concentrations with medium. Cells were exposed to MK-4, MKH-ACT, MKH-DMG or MKH-SUC for up to 96 h, and cell viability was evaluated using the Cell Titer-Glo Luminescent Cell Viability Assay (Promega, Madison, WI, USA) according to the manufacturer’s instructions. IC50 values were determined by a log [drug] vs. normalized response-variable slope analysis of GraphPad Prism, version 6.0 (GraphPad Software, San Diego, CA, USA).

SK-Hep-1 cells = assay: Cell viability assay (Cell Titer-Glo); format: cell-based; conditions: for IC50 lower than that of MK-4: 96 h of treatment; for IC50: Homo sapiens, 95% confidence interval in square brackets
Method: as §1, §2

[1] = system: cyclin D1 and CDK4 in PLC/PRF/5 cells; assay: Western blotting of cell cycle regulatory proteins; format: cell-based; conditions: 24 h after treatment
Method: We previously reported that MKH-DMG regulates cell cycle-related proteins as a mechanism of MKH-DMG-induced growth inhibition in PLC/PRF/5, Hep3B and SK-Hep-1 cells. Thus, to clarify the mechanisms of the growth inhibition induced by the MKH-ester prodrugs, we analyzed cell cycle-related proteins using Western blotting (Figure 7).
HCC cells were plated at 1.5 × 10^5 cells/well in 6-well plates and allowed to attach for 48 h. Cells were treated with MK-4, MKH-ACT, MKH-DMG or MKH-SUC for 24 h. Western blotting was performed as described previously.

[2] = parameters: method as in PMID 17537874, PMID 10077437; conditions: cited from earlier work
[3] = Hydrolysis of MKH-SUC in isotonic buffer solution (PBS); format: physicochemical; conditions: in PBS at 37 °C; read-out: Half-life toward MKH (converted)
Method: Next, a time course of MKH delivery with the MKH derivatives, including MK-4, was investigated. The AUC0–24h values for MKO after treatment of MKH-SUC was the highest among the three MKH-derivatives in both HCC cell lines, and the AUC0–24h values for MKH after treatment of MKH-SUC were also the highest (Table 3). […] However, the difference in MKH delivery was not higher than that of the regeneration to MKH by the esterase of HCC (Figure 4 and Table 2). […] These differences may result from the actual amount (nearly equal to Vmax values) of uptake and the regeneration step between MKH-ACT and MKH-DMG, and the rates of transportation/enzymatic reactions to the substances (Km) of MKH-ACT and MKH-DMG may be sufficient to reach Vmax under the test conditions shown in Figure 5. […] Regarding the decrease of MK-4 after 24 h treatment of MKH-SUC in both cells (Figure 5D,H), this phenomenon may be explained by the disposition of hydrolysis of MKH-SUC in an isotonic buffer solution. […] This is because, at 24 h, the delivery of MKH, which acts as a cofactor of GGCX, remained sufficient, but excess MKH that would be oxidized to MK-4 may be reduced with the elimination of MKH-SUC.

IC50 lower than that of MK-4 (SK-Hep-1 cells) [fold] | IC50 (SK-Hep-1 cells; SK-HEP1, 48 h) [µM] | IC50 (SK-Hep-1 cells; SK-HEP1, 72 h) [µM] | IC50 (SK-Hep-1 cells; SK-HEP1, 96 h) [µM] | half-life [3] [h] | melting point [°C] | SMILES | IC50 lower than that of MK-4 (PLC/PRF/5 cells) [fold] | IC50 (PLC/PRF/5 cells; 48 h) [µM] | IC50 (PLC/PRF/5 cells; 72 h) [µM] | IC50 (PLC/PRF/5 cells; 96 h) [µM] | Effect on cyclin D1 and CDK4 expression compared with controls [1] | Hydrolysis in human plasma [2]
3.61 | 71.3 | 32.5 | 24.4 |  |  | CC(C)=CCC/C(C)=C/CC/C(C)=C/CC/C(C)=C/Cc1c(C)c(OC(=O)CN(C)C)c2ccccc2c1OC(=O)CN(C)C [MKH-DMG, Menahydroquinone-4 1,4-bis-N,N-dimethylglycinate hydrochloride] | 3.17 | 63 | 33.4 | 27.4 | clearly suppressed | not accelerated
12.3 | 78.1 | 15.8 | 7.16 | ~25 |  | CC(C)=CCC/C(C)=C/CC/C(C)=C/CC/C(C)=C/Cc1c(C)c(OC(=O)CCC(=O)O)c2ccccc2c1OC(=O)CCC(=O)O [MKH-SUC, Menahydroquinone-4 1,4-bis hemisuccinate] | 4.32 | 48.9 | 26.6 | 20.1 | clearly suppressed | 
1.23 |  | 71.6 | 71.9 |  | 39 to 41 | CC(=O)Oc1c(C)c(C/C=C(\C)CC/C=C(\C)CC/C=C(\C)CCC=C(C)C)c(OC(C)=O)c2ccccc12 [MKH-ACT, Menahydroquinone-4 1,4-bis acetate] |  |  | 152 | 114 | did not affect | 
